From patent publication US9949976B2, “Kinase inhibitor and use thereof” (Sihuan Pharmaceutical Holdings Group Ltd., priority 2013, dated 2018) come the findings set out here.

SMILES strings stand for the structures. Read-outs that look alike come from different tables or passages of the source.

Data set [1] has as its system U87MG human glioblastoma cell. The data set can be described thus: BrdU cell proliferation assay (Cell Signaling kit). The class given is cell-based. The note with it: U-87 MG, 72 h, read-out: In vitro cell-inhibiting activity IC50 U87MG. On the procedure:
(§1) Experimental method: cell proliferation assay was carried out by BrdU method (BrdU cell proliferation assay kit, Cell Signaling Technology Company).
(§2) Preparation of gradient dilution solutions of test compound: the stock solution containing 10 mM test compound was subjected to 4-fold stepwise dilution with DMSO to prepare solutions containing 2.5 mM, 625 μM, 156 μM, 39 μM, 9.8 μM, and 2.5 μM test compound, respectively. 2 μL DMSO-diluted compound was added to 198 μL culture medium containing 10% FBS to prepare […] test compound, wherein the maximum concentration of the test compound was 100 μM, the concentration of DMSO was 1%, and there were 7 concentration gradients.
U87MG medium: MEM+10% FBS
(§3) (1) Cells grown to 80% confluence (in exponential growth phase) were digested with pancreatin, and centrifuged to collect the cells. MDA-MB-435S and U87MG cells were re-suspended in FBS-free culture medium, counted, and seeded to a 96-well plate; MDA-MB-435S cells were seeded at 3000 cells/well/81 μL; U87MG cells were seeded at 4000 cells/well/81 MCF-7 cells were resuspended in culture medium containing 1% FBS, and counted and seeded to a 96-well plate, at 4000 cell/well/82 μL. The plates were placed in a cell incubator at 37° C. […]
(§4) (9) To each well, stop solution (100 μL) was added, and OD value at 450 nm was measured by ELISA instrument […]

Data set [2] concerns MDA-MB-435S human melanoma cell. The data set can be described thus: BrdU cell proliferation assay (Cell Signaling kit). The class given is cell-based. The conditions noted are these: 72 h, read-out: In vitro cell-inhibiting activity IC50 MDA-MB-435S. As to the method: as §1, §2
MDA-MB-435S medium: L-15+10% FBS+0.01 mg/mL insulin
as §3, §4

The subject of data set [3] is MCF-7 human breast cancer cell. As to the kind of experiment: BrdU cell proliferation assay (Cell Signaling kit). The class given is cell-based. The conditions noted are these: MCF7, 72 h, read-out: In vitro cell-inhibiting activity IC50 MCF-7. On the procedure: as §1, §2
MCF-7 medium: DMEM+10% FBS+0.01 mg/mL insulin
as §3, §4

Data set [4] can be described thus: Pharmacokinetics in nude mouse (IV and PO). In kind it is in vivo. The note with it: female, BALB/c nude, plasma; for bioavailability: read-out: F (absolute bioavailability). As to the method:
Test animal: female nude mouse (BALB/c); control agent: 3 mice/administration route at each time point, weight: 22-25 g/mouse; Compound 1: 3 mice/administration route at each time point, weight: 22-25 g/mouse; Compound 6-1: 6 mice/administration route/test compound, weight: 18-26 g/mouse.
Control agent/Compound 1, IV administration group: before administration, 0.083, 0.25, 0.5, 1, 2, 4, 6, 8, 24, and 30 h after administration; PO administration group (10 mg/kg): before administration, 0.167, 0.5, 1, 2, 4, 6, 8, 24, and 30 h after administration.
Compound 1, PO administration group (100 mg/kg): 0.167, 0.5, 1, 2, 4, 6, 8, 24, 30, and 48 h after administration.
Compound 6-1, IV administration group (2.5 mg/kg) and PO administration group (10 mg/kg): 0.083, 0.25, 0.5, 1, 2, 4, 6, 8 and 24 h after administration; Compound 6-1, PO administration group (100 mg/kg): 0.083, 0.25, 0.5, 1, 2, 4, 6, 8, 24, 30, 48 h after administration.
Control agent/Compound 1: 300 μL whole blood was collected from intraocular canthus at each time point, and was centrifuged at 8000 r/min for 6 min in a high speed centrifuge to separate the plasma; the plasma was stored in a refrigerator at −80° C. Compound 6-1: 60 μL whole blood was collected from intraocular canthus at each time point, and was placed in an anticoagulation tube containing anticoagulant agent K2EDTA; the blood sample was centrifuged at 8000 r/min for 6 min to obtain a plasma sample.
The plasma samples of control agent and compound 1 were analyzed by precipitation of protein: to 50 μL plasma, 200 μL internal standard (acetonitrile solution containing 500 ng/mL Warfarin) was added; the resultant mixture was vortexed for 3 min at 1500 r/min, and centrifuged for 5 min at 13000 r/min; to 100 μL supernatant, 400 μL water was added; the resultant mixture was mixed homogeneously under vortexing and analyzed by LC-MS/MS.
The plasma sample of compound 6-1 was analyzed by precipitation of protein: to a suitable amount of plasma, a given volume of internal standard solution was added; the resultant mixture was vortexed and centrifuged; the supernatant was diluted by adding a given volume of water; the resultant mixture was mixed homogeneously under vortexing and analyzed by LC-MS/MS.

The next data set concerns the target CDK4/D3 (Homo sapiens, UniProt P11802). The data set can be described thus: In vitro enzyme-inhibiting activity, Caliper Mobility Shift method. In kind it is biochemical. The note with it: read-out: CDK enzyme-inhibiting activity IC50 CDK4/D3.
The next data set addresses CDK6/D3 (Homo sapiens, UniProt Q00534). Described as above. The class given is biochemical. The note with it: read-out: CDK enzyme-inhibiting activity IC50 CDK6/D3.

Chain of CDK6/D3 (Q00534 whole entry): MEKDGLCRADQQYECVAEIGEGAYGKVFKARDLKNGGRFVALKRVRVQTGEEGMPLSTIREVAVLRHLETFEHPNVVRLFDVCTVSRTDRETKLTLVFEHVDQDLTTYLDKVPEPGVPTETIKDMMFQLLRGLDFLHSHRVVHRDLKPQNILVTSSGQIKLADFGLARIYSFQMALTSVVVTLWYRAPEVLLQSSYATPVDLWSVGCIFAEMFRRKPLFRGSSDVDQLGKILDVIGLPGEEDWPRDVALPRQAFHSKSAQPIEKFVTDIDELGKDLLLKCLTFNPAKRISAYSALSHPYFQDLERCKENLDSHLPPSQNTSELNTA
Chain of CDK6/D3 (P30281 whole entry partner): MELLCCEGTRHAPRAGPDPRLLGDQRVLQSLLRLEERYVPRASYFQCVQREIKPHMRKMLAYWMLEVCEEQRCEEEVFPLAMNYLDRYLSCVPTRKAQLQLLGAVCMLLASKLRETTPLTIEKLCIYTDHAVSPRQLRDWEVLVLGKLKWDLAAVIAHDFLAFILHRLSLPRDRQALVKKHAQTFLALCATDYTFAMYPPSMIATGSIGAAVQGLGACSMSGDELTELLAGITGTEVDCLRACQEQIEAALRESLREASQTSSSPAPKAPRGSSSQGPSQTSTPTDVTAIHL
Chain of CDK4/D3 (P11802 whole entry): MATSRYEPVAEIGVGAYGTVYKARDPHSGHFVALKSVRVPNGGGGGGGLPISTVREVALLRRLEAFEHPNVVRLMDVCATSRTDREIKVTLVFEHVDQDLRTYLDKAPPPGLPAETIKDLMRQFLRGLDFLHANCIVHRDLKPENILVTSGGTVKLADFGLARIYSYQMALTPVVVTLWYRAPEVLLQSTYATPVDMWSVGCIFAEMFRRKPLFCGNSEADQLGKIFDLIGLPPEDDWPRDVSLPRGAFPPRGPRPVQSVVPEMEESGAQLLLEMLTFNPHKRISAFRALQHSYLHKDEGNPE
Chain of CDK4/D3 (P30281 whole entry partner): as the sequence (P30281 whole entry partner) above
Procedure for CDK4/D3: (§5) Measurement of activity for inhibiting CDK4/6 kinase by Caliper Mobility Shift method.
1) Preparation of 1-Fold Buffer for CDK4 Kinase 800 μL stock solution containing 1000 mM HEPES (pH 7.5), and 40 μL stock solution containing 10% Triton X-100, were added to 39160 μL ultra pure water, and the resultant mixture was mixed homogeneously.
(§6) 25 mL stock solution containing 4% Coating Reagent #3 (provided with the 12-sipper chip used in Caliper device), 50 mL stock solution containing 1000 mM HEPES (pH 7.5), 50 mL stock solution containing 0.5 M EDTA, and 0.25 mL stock solution containing 30% Brij-35, were added to 374.75 mL ultra pure water, and the resultant mixture was mixed homogeneously.
7 μL CDK4/D3 enzyme solution, and 9 μL stock solution containing 1M DTT were added to 1784 μL 1-fold CDK4 kinase buffer, and the resultant mixture was mixed homogeneously.
10 μL stock solution containing 100 mM ATP, 45 μL stock solution containing 1M MgCl2, and 45 μL FAM-tagged polypeptide 8, were added to 1700 μL 1-fold CDK4 kinase buffer, and the resultant mixture was mixed homogeneously.
(§7) DMSO solution containing 10 mM test compound was diluted with DMSO to a solution containing 50 μM test compound (which was used as a stock solution).
(§8) 1) 5 μL 5-fold test compound solution and 10 μL 2.5-fold kinase solution were added to the corresponding wells in a 384-well plate, and incubated at room temperature for 10 min.
(§9) 2) To the corresponding wells, 10 μL 2.5-fold polypeptide solution was added to start the enzymatic reaction, and incubation was performed at 28° C. for 5 h.
(§10) To the corresponding wells, 25 μL stop solution was added to stop the reaction.
(§11) The data was read by Caliper device, the inhibition rate was calculated by the following formula, and curve fitting was carried out by GraphPad5.0 software to get IC50 value. Inhibition rate=(maximal value−sample value)/(maximal value−minimal value)×100, wherein, maximal value: positive control without addition of test compound; minimal value: negative control without addition of enzyme.
Procedure for CDK6/D3: as §5
50 mL stock solution containing 1000 mM HEPES (pH 7.5), and 50 μL stock solution containing 30% Brij-35, were added to 949.95 mL ultra pure water, and the resultant mixture was mixed homogeneously.
as §6
18 μL CDK6/D3 enzyme solution, and 14 μL stock solution containing 1M DTT were added to 2768 μL 1-fold CDK6 kinase buffer, and the resultant mixture was mixed homogeneously.
23 μL stock solution containing 100 mM ATP, 75 μL stock solution containing 1M MgCl2, and 75 μL FAM-tagged polypeptide 8, were added to 2827 μL 1-fold CDK6 kinase buffer, and the resultant mixture was mixed homogeneously.
as §7, §8, §9, §10, §11

As to `Cc1nc2c(F)cc(-c3cc(Nc4ncc(CN5C[C@H]6CN(C)C[C@H]6C5)cn4)ncc3F)cc2n1C(C)C` [Compound 6-1, N-(5-fluoro-4-(4-fluoro-1-isopropyl-2-methyl-1H-benzo[d]imidazol-6-yl)pyridin-2-yl)-5-(((cis)-5-methylhexahydropyrrolo[3,4-c]pyrrol-2(1H)-yl)methyl)pyrimidin-2-amine], the IC50 in data set [1] was 47 nM; in data set [2], 70 nM; in data set [3], 83 nM. The exposure AUC(0-t) (in general, the area under the concentration-time curve up to a stated or last time point) worked out at 985 ng·h/mL in data set [4] (IV, 2.5 mg/kg); 1410 ng·h/mL in data set [4] (PO, 10 mg/kg); 90900 ng·h/mL in data set [4] (PO, 200 mg/kg). Also, the clearance in data set [4] (IV, 2.5 mg/kg) is 40.2 mL/min/kg. The Vd in data set [4] (IV, 2.5 mg/kg, read-out: Vss) was 12.5 L/kg. Moreover, the Cmax (usually the peak of the concentration-time curve) in data set [4] (PO, 10 mg/kg) was determined as 300 ng/mL; in data set [4] (PO, 200 mg/kg), 5370 ng/mL. For the same compound, the Tmax (usually the time from dosing to the highest level) in data set [4] (PO, 10 mg/kg) came out at 2 h; in data set [4] (PO, 200 mg/kg) it was 2 h. Moreover, the bioavailability in data set [4] (PO, 10 mg/kg) amounted to 39.3%; in data set [4] (PO, 200 mg/kg) it was 115%.
Take `CCN1CC2CCC(C1)N2Cc1cnc(Nc2cc(-c3cc(F)c4nc(C)n(C(C)C)c4c3)c(F)cn2)nc1` [Compound 13, 5-((3-ethyl-3,8-diazabicyclo[3.2.1]octan-8-yl)methyl)-N-(5-fluoro-4-(4-fluoro-1-isopropyl-2-methyl-1H-benzo[d]imidazol-6-yl)pyridin-2-yl)pyrimidin-2-amine]: the IC50 was 3 nM at CDK4/D3 and 31.3 nM at CDK6/D3.
Take `CCN1C2CCC1CN(Cc1cnc(Nc3cc(-c4cc(F)c5nc(C)n(C(C)C)c5c4)c(F)cn3)nc1)C2` [Compound 14, 5-((8-ethyl-3,8-diazabicyclo[3.2.1]octan-3-yl)methyl)-N-(5-fluoro-4-(4-fluoro-1-isopropyl-2-methyl-1H-benzo[d]imidazol-6-yl)pyridin-2-yl)pyrimidin-2-amine]: the values for the IC50 on CDK4/D3 and on CDK6/D3 were 2.6 nM and 23.1 nM, respectively.
